According to patent publication US20070254907A1, “COMPOSITIONS AND METHODS FOR CONTROLLING INFESTATION” (HATCHTECH PTY LTD, priority 2003, published 2007):
Square brackets hold non-standard residues; d marks the D form. Peptide text beside a SMILES is read from it. * marks the point of attachment. Sta = CC(C)C[C@H](N)[C@@H](O)CC(=O)O; Isovaleryl = CC(C)CC(=O)*

How the values were obtained:
[1] = system: Lice (L) and Plutella (P) eggs; details: in vivo
[2] = system: Lice (L) and Plutella (P) eggs; test: whole plant or invertebrate; details: read-out: Ovicidal activity %
H. contortus eggs = test: Egg hatching in Haemonchus contortus; type: in vivo
Method: In an attempt to improve control of H. contortus the effects of the compound 5,5′-dimethyl-2,2′-dipyridyl was examined on H. contortus eggs. Eggs were recovered from the faeces of infected sheep using a standard sucrose floatation method. The eggs were corrected to a density of approximately 2,500 eggs per mL and were then exposed to varying concentrations of compound and incubated for 48 hours at 25° C. The eggs were then examined to determine the ovicidal efficacy of the compound in comparison to untreated control and a solvent only control.
In addition, the ovicidal efficacy of the compound 2-acetyl-1-tetralone was examined against H. contortus (FIG. 10). The same protocol was used as described for 5,5′-dimethyl-2,2′-dipyridyl.

Plutella xylostella eggs [3] = test: whole plant or invertebrate; type: in vivo; details: for ovicidal efficacy against Plutella: 1% diethoxyglycol (FIG. 7); for inhibition of Plutella egg hatching: 1% diethoxyglycol; for Number hatched / Number unhatched: Table 17, eggs laid on cloth; for % Inhibition: Table 17, relative to control (1% diethoxyglycol)
Method: The ovicidal efficacy of 2-acetyl-1-tetralone was also tested against Plutella eggs.

[4] = system: Helicoverpa armigera eggs; test: Egg hatching of Helicoverpa armigera; details: 1% diethoxyglycol in water (FIG. 6)
Method: A range of concentrations were made up in water and the eggs placed in the solutions for approximately 2-10 seconds. The eggs which had been laid on cloth were then blotted dry and placed in an incubator at 26° C. for 3-4 days until hatch. Hatch rates were then assessed compared to a water only treated control (FIG. 5).
The compound was dissolved in 100% diethoxyglycol and diluted to a final concentration of 1% in water.
Several hundred Helicoverpa armigera eggs (Tatura×Toowoomba strains) were collected, that had been laid on fine mesh cloth over a 24 hour period.
Batches of Helicoverpa eggs were exposed to a specific inhibitor solution for between 2-10 seconds the excess solution drained by blotting with dry tissue paper. The egg masses were then placed in a humid box at 25 degrees until egg hatch. Control eggs were exposed to absolute methanol as described above. At day 6 post laying the eggs were assessed from the different treatments and the percentage of egg hatch determined relative to the control as shown in Table 12.
Batches of Helicoverpa eggs were then exposed to a specific inhibitor solution for between 2-10 seconds the excess solution drained by blotting with dry tissue paper. The egg masses were then placed in a humid box at 25° C. until egg hatch. Control eggs were exposed to absolute methanol as described above. At day 6 post laying the eggs were assessed from the different treatments and the percentage of egg hatch determined relative to the control as shown in Table 13.

Plutella xylostella eggs [5] = test: Glass house ovicidal test on sprayed cabbage plants; type: in vivo; details: 10 eggs per cabbage plant, one value per plant
Source text: A number of treatments and replicates were set up in the glass house using young cabbage plants that were at the 4-5 leaf stage. Plutella xylostella eggs were laid by gravid females on the leaves such that each plant contained 10 eggs. The plants were sprayed with a commercial ovicide or using the compounds 5,5′-dimethyl-2,2′-dipyridyl and 5,5′diethyl-2,2′-dipyridyl in a formulation at the rate of 200 L/Ha using a track sprayer. Controls of water only or Placebo only were also included. The ovicidal efficacy was monitored over a number of days an the number of eggs hatching and caterpillar larvae emerging recorded (Table 22).

[6] = system: proteases in egg shell washings (ESW) of lice eggs; test: Gelatin substrate SDS-PAGE of lice egg shell washings (ESW) incubated with protease inhibitors; type: biochemical, Pediculus humanus humanus; details: gel strips incubated with inhibitor: PMSF 5 mM, 1,10-phenanthroline 10 mM, EDTA 10 mM, pepstatin 5 μM, E-64 10 μM
Method: Within 12 hours of hatching 50 body lice eggs (Pediculus humanus humanus) were removed from the hair and placed in a 1 mL eppendorf tube. 20 μL of distilled water was added to the unhatched eggs and the preparation incubated for 30 minutes at 32° C. The 20 μL was recovered, freeze dried and stored at −70° C. This sample was referred to as sample 1. A number of other samples were also collected as described. Sample 2 was collected by removing the unhatched louse eggs from four hairs that were approximately 3 cm long, cutting the hair into 0.5 cm lengths, and placing them into a microfuge tube containing 20 μl of distilled water and incubating at 32° C. for 30 minutes. Sample 3 was collected as for sample 2, but the hair was placed in a tube containing 10 mL of 1% sodium hypochlorite for 1 minute followed by five 1 minute washes in 25 mL of distilled water to remove the sodium hypochlorite before being incubated in a microfuge tube containing 20 μl of distilled water and incubated as for Sample 2. Sample 4 was collected from unhatched eggs which were removed from the hair and washed with 1% sodium hypochlorite and incubated in 20 μl of distilled water in the same manner as the hair in Sample 3. Finally, Sample 5 was collected from eggs that were within 24 hrs of hatching which were washed with 1% sodium hypochlorite, then returned to the incubator at 32° C. until they hatched, the empty egg shells collected 0-2 hrs after egg-hatching, placed in a 1 mL microfuge tube containing 20 μl of distilled water and incubated as for Samples 1-4. For all samples 1-5 the 20 μl of fluid was recovered, freeze-dried and stored at −70° C. The washings recovered from these freshly hatched egg shells are referred to as egg-shell-washings (ESWs). In order to look for the presence of proteases present in these different samples, the freeze-dried samples were resuspended in 15 μL of non-reducing SDS sample buffer, centrifuged at 10,000 g for 2 minutes and the entire 15 μL loaded on to 10% gelatine substrate SDS-PAGE gels. Gels were run at 4° C. for 10 minutes at 10 mA followed by a further 25 minutes at 15 mA per gel. They were then incubated for 2×20 minutes in a 2.5% Triton-X 100 solution followed by a three hour incubation in 0.1M Tris/HCl containing 1 mM CaCl2 pH 8.0. Activity was detected as clear areas on the gel the result of protease activity degrading the gelatine within the gel.
Protease activity in the ESWs from louse eggs was also examined using two-dimensional gel electrophoresis. It was necessary to collect large numbers of freshly hatched egg shells. Following egglaying onto pieces of cloth, adult female lice were removed and the cloth with the eggs washed with 1% sodium hypochlorite as for collection of ESWs. The eggs were then returned to the incubator and permitted to hatch. Typically 100 to 500 hatched egg shells were collected (0-2 hours post hatching), placed in a microfuge tube containing 200 μl of distilled water, incubated and sample treated as described above. For analysis, ESWs were resuspended in rehydration buffer (8 M Urea, 2% 3-[(3-cholamidopropyl) dimethylammonio]-1-propanesulfonate 2% Immobilised pH gradient buffer 3-10 (Amersham Phamacia Biotech, Uppsala, Sweden)) and used to rehydrate 7 cm Immobiline Dry strips pH 3-10 (Amersham Bioscience) overnight. Strips were transferred to the Multiphor II (Pharmacia, Sweden) apparatus, electrophoresed in the first dimension at 200 V for 1 min, increasing to 3,500 V over the next 90 min followed by 65 min at 3,500 V, equilibrated (6 M urea, 30% glycerol, 50 mM Tris pH 8.8 and 2% SDS) and then run on a 10% SDS-PAGE gel containing 0.1% gelatin for the second dimension. The gel was then run and developed as previously described.
10% SDS-PAGE gelatine substrate gels were loaded with freeze dried egg shell washings from 100 lice eggs that had been resuspended in 50 μL of non-reducing sample buffer with samples run at 10 μL per lane. […]

[7] = 0-24 h, 10 mM (200 L/Ha), with wetting agent 0.3 ml/L

For `COc1ccc(C(=O)CC(=O)c2ccc(C(C)(C)C)cc2)cc1` [1-(4-tert-butylphenyl)-3-(4-methoxyphenyl)-propane-1,3-dione], the “Logit calc pLD50” value [1] was 0.7, the “Pref pLD50” value [1] was <2 and the inhibition at 10000 µM [2] was 0%.
`CC(=O)C1CCc2ccccc2C1=O` (stereo not drawn) [2-acetyl-1-tetralone] was tested, and the “inhibition of H. contortus egg hatch” value (H. contortus eggs; 22 ug/mL (0.1 mM) (FIG. 10)) was “Partial inhibition of egg hatching”, the “inhibition of H. contortus egg hatch” value (H. contortus eggs; 220 ug/mL (1 mM) and 110 ug/mL (0.5 mM) (FIG. 10)) was “highly effective at inhibiting egg hatch” and the “ovicidal efficacy against Plutella” value (Plutella xylostella eggs [3]; 0.5 mM) was “no inhibition observed”. For the same compound, the “ovicidal efficacy against Plutella” value (Plutella xylostella eggs [3]; 2 and 1 mM) was “strong ovicidal efficacy”, the inhibition at 1000 µM (Plutella xylostella eggs [3]; Plutella xylostella, Plutella (P), 1 mM, read-out: Ovicidal activity %) was 100% and the inhibition at 10000 µM (Plutella xylostella eggs [3]; Plutella xylostella, Plutella (P), 10 mM, read-out: Ovicidal activity %) was 100%. The “ovicidal efficacy against H. armigera eggs” value ([4]; 1 mM) was “efficacy declining” and the “ovicidal efficacy against H. armigera eggs” value ([4]; 2 mM) was “strong ovicidal efficacy”.
`CCc1ccc(-c2ccc(CC)cn2)nc1` [5,5′-diethyl-2,2′-dipyridyl] was tested, and the “# LARVAE EMERGED” value (Plutella xylostella eggs [5]; 0-24 h, 10 mM (200 L/Ha) No Wetting Agent) was 0, the “# LARVAE EMERGED” value (Plutella xylostella eggs [5]; [7]) was 0 and the “inhibition of Plutella egg hatching” value (Plutella xylostella eggs [3]; 0.1 mM) was “Partial inhibition of egg hatching”. The “inhibition of Plutella egg hatching” value (Plutella xylostella eggs [3]; 1 mM) was “complete inhibition”, the Number hatched (Plutella xylostella eggs [3]; 0.1 mM in 1% diethoxyglycol) was 22 and the Number unhatched (Plutella xylostella eggs [3]; 0.1 mM in 1% diethoxyglycol) was 34. For the same compound, the Number hatched (Plutella xylostella eggs [3]; 1 mM in 1% diethoxyglycol) was 0, the Number unhatched (Plutella xylostella eggs [3]; 1 mM in 1% diethoxyglycol) was 34 and the “% Inhibition” value (Plutella xylostella eggs [3]; 0.1 mM) was 31%. The “% Inhibition” value (Plutella xylostella eggs [3]; 1 mM) was 100%.
With `Cc1ccc(-c2ccc(C)cn2)nc1` [5,5′dimethyl-2,2′-dipyridyl] the “# LARVAE EMERGED” value (Plutella xylostella eggs [5]; [7]) was 0, the “# LARVAE EMERGED” value (Plutella xylostella eggs [5]; 0-24 h, 20 mM (200 L/Ha), with wetting agent 0.3 ml/L) was 0 and the “# LARVAE EMERGED” value (Plutella xylostella eggs [5]; 24-48 h, 10 mM (200 L/Ha), with wetting agent 0.3 ml/L) was 0. For the same compound, the “# LARVAE EMERGED” value (Plutella xylostella eggs [5]; 24-48 h, 20 mM (200 L/Ha), with wetting agent 0.3 ml/L) was 0 and the “# LARVAE EMERGED” value (Plutella xylostella eggs [5]; 48-72 h, 20 mM (200 L/Ha), with wetting agent 0.3 ml/L) was 0.
`CC(C)C[C@H](NC(=O)[C@H]1O[C@@H]1C(=O)O)C(=O)NCCCCN=C(N)N` [E-64] was tested, and the “protease activity of ESW on gelatin SDS-PAGE compared to untreated controls” value [6] was “no apparent reduction in protease activity”.
In the case of `O=C(O)CN(CCN(CC(=O)O)CC(=O)O)CC(=O)O` [EDTA, ethylenediamine tetraacetic acid], the “protease activity of ESW on gelatin SDS-PAGE compared to untreated controls” value [6] is reported as “reduction in protease activity”.
For `O=S(=O)(F)Cc1ccccc1` [PMSF], the “protease activity of ESW on gelatin SDS-PAGE compared to untreated controls” value [6] was “no apparent reduction in protease activity”.
For `CC(C)CC(=O)N[C@H](C(=O)N[C@H](C(=O)N[C@@H](CC(C)C)[C@@H](O)CC(=O)N[C@@H](C)C(=O)N[C@@H](CC(C)C)[C@@H](O)CC(=O)O)C(C)C)C(C)C` [pepstatin] (Isovaleryl-VV[Sta]A[Sta]-OH), the “protease activity of ESW on gelatin SDS-PAGE compared to untreated controls” value [6] was “no apparent reduction in protease activity”.
